Results taken from patent US20060121083A1 (priority 2003, published 2006).
Values after ≈ are worked out from the molar mass of the structure shown. Read-outs that look alike come from different tables or passages of the source. Square brackets hold non-standard residues; d marks the D form. Peptide text beside a SMILES is read from it. * marks the point of attachment. Lauroyl = CCCCCCCCCCCC(=O)*; 12Ado = NCCCCCCCCCCCC(=O)O; Decanoyl = CCCCCCCCCC(=O)*; Octanoyl = CCCCCCCC(=O)*; Hexanoyl = CCCCCC(=O)*; Butyryl = CCCC(=O)*

Experiments:
S. aureus cells = assay: Bacterial growth (CFU) of S. aureus culture grown with peptides; format: cell-based; conditions: in-vitro culture grown 2.5 hours with peptide, FIG. 5a
Description: (§1) RNAIII synthesis and bacterial growth: Cultures of S. aureus (20 million cells in a volume of 30 microliters) containing an expression construct for expression of the fusion protein maiii::blaZ (described in Gov, Y. et al., 2001. Peptides. 22: 1609-20 were grown for 2.5 hours with 5 microliters peptide solution or control buffer. A 5 microliter sample was taken from the cultures, diluted in saline, and streaked on LB agar plates to quantitate CFUs. The remainder of the cultures were used to determine RNAIII synthesis (beta-lactamase activity). This was performed by adding a substrate of beta-lactamase (nitrocefin), and determining OD 490 nm/OD 650 nm, as previously described (Gov, Y. et al., 2001. Peptides. 22: 1609-20).

S. aureus = assay: MIC assayed against S. aureus (Table 1); format: cell-based
[1] = tested on: methicillin-resistant S. epidermidis (MRSE); format: in vivo; conditions: rats, MRSE challenge, explanted at 7 days
Text: (§2) Animals: Adult male Wistar rats, 250-300 gr (I.N.R.C.A. I.R.R.C.S. animal facility, Ancona) were used, with 15 animals per experimental group.
(§3) Mammalian graft infection model: Rats were anesthetized and their hair of the back was shaved and the skin cleansed with 10 percent povidone-iodine solution. One subcutaneous pocket was made on each side of the median line by a 1.5 cm incision. Aseptically, 1 square centimeter sterile albumin-sealed Dacron™ grafts (Albograft™, Sorin Biomedica Cardio, S.p.A., Saluggia VC, Italy) were implanted into the pockets. Prior to implantation grafts were soaked for 20 minutes in sterile antibiotic solutions. The pockets were closed by means of skin clips and saline solution (1 mL) containing methicillin-resistant S. aureus (MRSA) or S. epidermidis (MRSE) at a concentration of 2×10^7 colony-forming units (CFU)/mL was inoculated onto the graft surface by using a tuberculin syringe to create a subcutaneous fluid-filled pocket. The animals were returned to individual cages and thoroughly examined daily. All grafts were explanted at 7 days following implantation.
(§4) Assessment of the infection: The explanted grafts were placed in sterile tubes, washed in sterile saline solution, placed in tubes containing 10 mL of phosphate-buffered saline solution and sonicated for 5 minutes to remove the adherent bacteria from the grafts (Balaban, N. et al, 2003. Kidney Int. 63: 340-345). Quantitation of viable staphylococci was performed by culturing serial dilutions (0.1 mL) of the bacterial suspensions on blood agar plates at 37 degrees centigrade for 48 hours. The organisms were quantitated by counting the number of colony-forming units (CFUs) per plate. The limit of detection for this method was approximately 10 CFU/mL.
(§5) Statistical analysis: MIC values are presented as the geometric mean of three separate experiments. […] Significance was accepted when the P value was less than/equal to 0.05.

[2] = tested on: methicillin-resistant S. aureus (MRSA); format: in vivo; conditions: rats, MRSA challenge, explanted at 7 days
Text: as §2, §3, §4, §5

RNAIII synthesis = RNAIII synthesis (beta-lactamase reporter, nitrocefin); format: cell-based, S. aureus
Description: as §1

[3] = graft presoaked in 10 micrograms/mL peptide
[4] = graft presoaked in 20 micrograms/mL peptide
[5] = graft presoaked in 50 micrograms/mL peptide

Structure (SMILES)	MIC (minimal inhibitory concentration) (S. aureus) [µM]	further results
CC(C)C[C@H](NC(=O)[C@H](C)N)C(=O)N[C@@H](Cc1c[nH]c2ccccc12)C(=O)N[C@@H](CCCCN)C(=O)N[C@H](C(=O)N[C@@H](CC(C)C)C(=O)N[C@@H](CC(C)C)C(=O)N[C@@H](CCCCN)C(=O)N[C@@H](CCCCN)C(=O)N[C@H](C(=O)N[C@@H](CC(C)C)C(=O)N[C@@H](CCCCN)C(=O)N[C@@H](C)C(N)=O)C(C)C)[C@@H](C)O [DD13] (H-ALWKTLLKKVLKA-NH2; N-terminus assumed)	9 ± 3 (≈ 13.6 µg/mL)	Bactericidal activity (CFU counts) (S. aureus cells): potent bactericidal activity; Graft bacterial load (quantitative culture) [1, 3]: 5.2×10^2±1.6×10^2 CFU/ml; Graft bacterial load (quantitative culture) [1, 4]: 4.4×10^1±1.3×10^1 CFU/ml; Graft bacterial load (quantitative culture) [1, 5]: negative quantitative cultures; Graft bacterial load (quantitative culture) [2, 3]: 5.2×10^2±1.6×10^2 CFU/ml; Graft bacterial load (quantitative culture) [2, 4]: 4.0×10^1±1.7×10^1 CFU/ml; Graft bacterial load (quantitative culture) [2, 5]: negative quantitative cultures; Inhibition of RNAIII synthesis (RNAIII synthesis; FIG. 5b, at high peptide concentrations mostly attributable to cell death): more efficient than RIP; Effect on RNAIII synthesis at low peptide concentrations (RNAIII synthesis; low peptide concentrations where no cell death occurred (inset FIG. 5b)): unable to affect RNAIII synthesis
CC(=O)N[C@@H](C)C(=O)N[C@@H](CC(C)C)C(=O)N[C@@H](Cc1c[nH]c2ccccc12)C(=O)N[C@@H](CCCCN)C(=O)N[C@H](C(=O)N[C@@H](CC(C)C)C(=O)N[C@@H](CC(C)C)C(=O)N[C@@H](CCCCN)C(=O)N[C@@H](CCCCN)C(=O)N[C@H](C(=O)N[C@@H](CC(C)C)C(=O)N[C@@H](CCCCN)C(=O)N[C@@H](C)C(N)=O)C(C)C)[C@@H](C)O [SEQ ID NO: 1, C2—, —CONH2] (Ac-ALWKTLLKKVLKA-NH2)	25 (≈ 38.8 µg/mL)	–
CCCC(=O)N[C@@H](C)C(=O)N[C@@H](CC(C)C)C(=O)N[C@@H](Cc1c[nH]c2ccccc12)C(=O)N[C@@H](CCCCN)C(=O)N[C@H](C(=O)N[C@@H](CC(C)C)C(=O)N[C@@H](CC(C)C)C(=O)N[C@@H](CCCCN)C(=O)N[C@@H](CCCCN)C(=O)N[C@H](C(=O)N[C@@H](CC(C)C)C(=O)N[C@@H](CCCCN)C(=O)N[C@@H](C)C(N)=O)C(C)C)[C@@H](C)O [SEQ ID NO: 1, C4—, —CONH2] (Butyryl-ALWKTLLKKVLKA-NH2)	12 (≈ 19 µg/mL)	–
CCCCCC(=O)N[C@@H](C)C(=O)N[C@@H](CC(C)C)C(=O)N[C@@H](Cc1c[nH]c2ccccc12)C(=O)N[C@@H](CCCCN)C(=O)N[C@H](C(=O)N[C@@H](CC(C)C)C(=O)N[C@@H](CC(C)C)C(=O)N[C@@H](CCCCN)C(=O)N[C@@H](CCCCN)C(=O)N[C@H](C(=O)N[C@@H](CC(C)C)C(=O)N[C@@H](CCCCN)C(=O)N[C@@H](C)C(N)=O)C(C)C)[C@@H](C)O [SEQ ID NO: 1, C6—, —CONH2] (Hexanoyl-ALWKTLLKKVLKA-NH2)	2.2 ± 0.8 (≈ 3.54 µg/mL)	–
CCCCCCCC(=O)N[C@@H](C)C(=O)N[C@@H](CC(C)C)C(=O)N[C@@H](Cc1c[nH]c2ccccc12)C(=O)N[C@@H](CCCCN)C(=O)N[C@H](C(=O)N[C@@H](CC(C)C)C(=O)N[C@@H](CC(C)C)C(=O)N[C@@H](CCCCN)C(=O)N[C@@H](CCCCN)C(=O)N[C@H](C(=O)N[C@@H](CC(C)C)C(=O)N[C@@H](CCCCN)C(=O)N[C@@H](C)C(N)=O)C(C)C)[C@@H](C)O [SEQ ID NO: 1, C8—, —CONH2] (Octanoyl-ALWKTLLKKVLKA-NH2)	1.5 (≈ 2.46 µg/mL)	–
CCCCCCCCCC(=O)N[C@@H](C)C(=O)N[C@@H](CC(C)C)C(=O)N[C@@H](Cc1c[nH]c2ccccc12)C(=O)N[C@@H](CCCCN)C(=O)N[C@H](C(=O)N[C@@H](CC(C)C)C(=O)N[C@@H](CC(C)C)C(=O)N[C@@H](CCCCN)C(=O)N[C@@H](CCCCN)C(=O)N[C@H](C(=O)N[C@@H](CC(C)C)C(=O)N[C@@H](CCCCN)C(=O)N[C@@H](C)C(N)=O)C(C)C)[C@@H](C)O [SEQ ID NO: 1, C10—, —CONH2] (Decanoyl-ALWKTLLKKVLKA-NH2)	1.5 (≈ 2.5 µg/mL)	–
CCCCCCCCCCCC(=O)N[C@@H](C)C(=O)N[C@@H](CC(C)C)C(=O)N[C@@H](Cc1c[nH]c2ccccc12)C(=O)N[C@@H](CCCCN)C(=O)N[C@H](C(=O)N[C@@H](CC(C)C)C(=O)N[C@@H](CC(C)C)C(=O)N[C@@H](CCCCN)C(=O)N[C@@H](CCCCN)C(=O)N[C@H](C(=O)N[C@@H](CC(C)C)C(=O)N[C@@H](CCCCN)C(=O)N[C@@H](C)C(N)=O)C(C)C)[C@@H](C)O [SEQ ID NO: 1, C12—, —CONH2] (Lauroyl-ALWKTLLKKVLKA-NH2)	4.5 ± 1.5 (≈ 7.62 µg/mL)	–
CC(C)C[C@H](NC(=O)[C@H](C)NC(=O)CCCCCCCCCCCN)C(=O)N[C@@H](Cc1c[nH]c2ccccc12)C(=O)N[C@@H](CCCCN)C(=O)N[C@H](C(=O)N[C@@H](CC(C)C)C(=O)N[C@@H](CC(C)C)C(=O)N[C@@H](CCCCN)C(=O)N[C@@H](CCCCN)C(=O)N[C@H](C(=O)N[C@@H](CC(C)C)C(=O)N[C@@H](CCCCN)C(=O)N[C@@H](C)C(N)=O)C(C)C)[C@@H](C)O [SEQ ID NO: 1, NC12—, —CONH2] (H-[12Ado]ALWKTLLKKVLKA-NH2)	0.75 (≈ 1.28 µg/mL)	–
CC(C)C[C@H](NC(=O)[C@H](Cc1c[nH]c2ccccc12)NC(=O)[C@H](CCCCN)NC(=O)[C@@H](NC(=O)[C@H](CC(C)C)NC(=O)[C@H](CC(C)C)NC(=O)[C@H](CCCCN)NC(=O)[C@H](CCCCN)NC(=O)[C@@H](NC(=O)[C@H](CC(C)C)NC(=O)[C@H](CCCCN)NC(=O)[C@H](C)NC(=O)CCCCCCCCCCCN)C(C)C)[C@@H](C)O)C(=O)N[C@@H](C)C(N)=O [SEQ ID NO: 2, NC12—, —CONH2]	1.5 (≈ 2.56 µg/mL)	–
CC(C)C[C@H](NC(=O)[C@H](C)NC(=O)[C@H](CCCCN)NC(=O)CCCCCCCCCCCN)C(=O)N[C@@H](Cc1c[nH]c2ccccc12)C(=O)N[C@@H](CCCCN)C(=O)N[C@H](C(=O)N[C@@H](CC(C)C)C(=O)N[C@@H](CC(C)C)C(=O)N[C@@H](CCCCN)C(=O)N[C@@H](CCCCN)C(=O)N[C@H](C(=O)N[C@@H](CC(C)C)C(=O)N[C@@H](CCCCN)C(=O)N[C@@H](C)C(N)=O)C(C)C)[C@@H](C)O [SEQ ID NO: 3, NC12—, —CONH2]	1.5 (≈ 2.75 µg/mL)	–
CCCCCCCCCCCC(=O)N[C@@H](C)C(=O)N[C@@H](CC(C)C)C(=O)N[C@@H](Cc1c[nH]c2ccccc12)C(=O)N[C@@H](CCCCN)C(=O)N[C@H](C(=O)N[C@@H](CC(C)C)C(=O)N[C@@H](CC(C)C)C(=O)N[C@@H](CCCCN)C(=O)N[C@@H](CCCCN)C(=O)N[C@H](C(N)=O)C(C)C)[C@@H](C)O [SEQ ID NO: 4, C12, —CONH2] (Lauroyl-ALWKTLLKKV-NH2)	3 (≈ 4.14 µg/mL)	–
CCCCCCCCCCCC(=O)N[C@H](C(=O)N[C@@H](CC(C)C)C(=O)N[C@@H](CC(C)C)C(=O)N[C@@H](CCCCN)C(=O)N[C@@H](CCCCN)C(=O)N[C@H](C(=O)N[C@@H](CC(C)C)C(=O)N[C@@H](CCCCN)C(=O)N[C@@H](C)C(N)=O)C(C)C)[C@@H](C)O [SEQ ID NO: 5, C12, —CONH2] (Lauroyl-TLLKKVLKA-NH2)	1.5 ± 0.75 (≈ 1.79 µg/mL)	–
